Consider 13 compounds from patent publication US20240287042A1, “NOVEL COMPOUND HAVING INHIBITORY ACTIVITY AGAINST PENDRIN, AND PHARMACEUTICAL USES THEREOF” (UIF (University Industry Foundation), Yonsei University, priority 2021, published 2024).

Bounds are passed on as bounds.

In general, inhibition refers to the change of the read-out against control, counted positive when it falls. A lower inhibition goes with a response near the control.

The target of this experiment is T1, human wild-type (WT)-pendrin (Homo sapiens, UniProt O43511).
T1 construct: expressed in transfected cells
T1 sequence (O43511 1-780): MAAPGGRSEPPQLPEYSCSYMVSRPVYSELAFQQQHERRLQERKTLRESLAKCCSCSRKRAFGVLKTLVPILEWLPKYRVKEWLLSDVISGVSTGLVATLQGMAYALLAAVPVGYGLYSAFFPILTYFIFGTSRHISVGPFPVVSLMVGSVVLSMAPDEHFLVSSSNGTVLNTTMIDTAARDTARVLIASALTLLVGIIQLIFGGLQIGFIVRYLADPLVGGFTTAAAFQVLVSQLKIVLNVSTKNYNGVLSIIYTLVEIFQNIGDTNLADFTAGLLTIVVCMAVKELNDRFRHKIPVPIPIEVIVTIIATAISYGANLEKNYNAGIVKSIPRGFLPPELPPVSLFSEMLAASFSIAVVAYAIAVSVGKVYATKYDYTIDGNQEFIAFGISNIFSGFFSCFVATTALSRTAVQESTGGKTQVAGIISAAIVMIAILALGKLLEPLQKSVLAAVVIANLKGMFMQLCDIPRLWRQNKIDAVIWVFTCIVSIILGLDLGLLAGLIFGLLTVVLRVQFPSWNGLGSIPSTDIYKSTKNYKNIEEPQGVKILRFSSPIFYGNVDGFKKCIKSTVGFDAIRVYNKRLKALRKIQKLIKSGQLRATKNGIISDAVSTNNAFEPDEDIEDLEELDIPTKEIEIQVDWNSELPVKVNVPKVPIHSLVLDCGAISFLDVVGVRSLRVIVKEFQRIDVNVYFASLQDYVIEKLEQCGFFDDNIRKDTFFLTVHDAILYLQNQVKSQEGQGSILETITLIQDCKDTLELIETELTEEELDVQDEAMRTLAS
Nature of the experiment: Pendrin Cl−/I− exchange inhibitory activity, YFP fluorescence in CHO-K1 cells. The experiment is classed as cell-based. The note with it: CHO-K1; for inhibition at 1 µM: compound concentration 1 μM; for inhibition at 3 µM: compound concentration 3 μM; for inhibition at 10 µM: compound concentration 10 μM; for inhibition at 30 µM: compound concentration 30 μM; for inhibition at 100 µM: compound concentration 100 μM. On the procedure: Chinese hamster ovary (CHO)-K1 cells were cultured in DMEM medium containing 10% fetal bovine serum (FBS), 100 units/ml of penicillin and 100 μg/ml streptomycin. CHO-K1 cells were stably transfected with pcDNA3.1 encoding the halide sensor YFP-H148Q/I152L/F46L and human wild-type (WT)-pendrin.
(§1) CHO-K1 cells expressing human WT pendrin and YFP-F46L/H148Q/I152L were plated in 96-well microplates at a density of 2×10^4 cells per well, and cultured for 48 hours. Each well of the cell cultured 96-well plate was washed 2 times with 200 μL of PBS, and filled with 50 μL of HEPES buffered solution (140 mM NaCl, 5 mM KCl, 1 mM MgCl2, 1 mM CaCl2), 10 mM glucose and 10 mM HEPES (pH 7.4)). Test compounds (1 μL) were added to a final concentration of 1, 3, 10, 30 and 100 μM. After culturing at 37° C. for 10 minutes, the 96-well plate was located on the FLUOstar Omega Microplate Reader (BMG Labtech, Ortenberg, Germany) for a fluorescence assay. Fluorescence was recorded continuously (400 ms per point) for 1 second (baseline), whereby each well was assayed individually for pendrin-mediated I-influx. Then 50 μL of Na-substituted HEPES buffered solution (replacing NaCl with NaI) was added using a liquid injector at 1 second, and YFP fluorescence was recorded for 5 seconds. The initial iodide influx rate was determined from the initial slope of fluorescence by nonlinear regression, after the injection of iodide.
as §1, with “Chinese hamster ovary (CHO)-K1 cells were cultured in DMEM medium containing 10% fetal bovine serum (FBS), 100 units/ml of penicillin and 100 μg/ml streptomycin. CHO-K1 cells were stably transfected with pcDNA3.1 encoding the halide sensor YFP-H148Q/I152L/F46L and human wild-type (WT)-pendrin. 3-2: Assay of Cl^−/I^− exchange activity CHO-K1” for “CHO-K1”, “50” for “1, 3, 10, 30 and 100”, “Then,” for “Then”, “NaI-substituted” for “Na-substituted”

In turn, `Cc1cccc(Cl)c1N1CCN(C(=O)Cc2c(C(=O)O)[nH]c3ccc(F)cc23)CC1` [YPI-A4963, 3-(2-(4-(2-Chloro-6-methylphenyl)piperazin-1-yl)-2-oxoethyl)-5-fluoro-1H-indole-2-carboxylic acid] showed an inhibition at 1 µM of less than 20%, an inhibition at 3 µM of 52.3%, an inhibition at 10 µM of 89.6% and an inhibition at 30 µM of 100%.
`Cc1cc(C)c2[nH]c(C(=O)O)c(CC(=O)N3CCN(c4ccc(C(C)(C)C)cc4)CC3)c2c1` [YPI-A4945] yielded an inhibition at 1 µM of less than 20%, an inhibition at 3 µM of less than 20%, an inhibition at 10 µM of less than 20% and an inhibition at 30 µM of 38.5%. Moreover, the inhibition at 100 µM stood at 38.6%.
In turn, `O=C(O)c1[nH]c2ccc(Cl)cc2c1CC(=O)N1CCN(c2ccccc2F)CC1` [YPI-A4917, 5-Chloro-3-(2-(4-(2-fluorophenyl)piperazin-1-yl)-2-oxoethyl)-1H-indole-2-carboxylic acid] displayed an inhibition at 1 µM of less than 20%, an inhibition at 3 µM of less than 20%, an inhibition at 10 µM of less than 20% and an inhibition at 30 µM of less than 20%. For the same compound, testing at 100 µM gave an inhibition of 78.3%.
Compound `O=C(O)c1[nH]c2ccc(Cl)cc2c1CC(=O)N1CCN(c2ccccc2C(F)(F)F)CC1` [YPI-A4781, 5-Chloro-3-(2-oxo-2-(4-(2-(trifluoromethyl)phenyl)piperazin-1-yl)ethyl)-1H-indole-2-carboxylic acid] gave an inhibition at 1 µM of less than 20%, an inhibition at 3 µM of 21.5%, an inhibition at 10 µM of 71.4% and an inhibition at 30 µM of 93.8%. This compound also yielded an inhibition at 100 µM of 95.6%.
`O=C(O)c1[nH]c2ccc(Cl)cc2c1CC(=O)N1CCN(c2ccc(F)cc2F)CC1` [YPI-A4915, 5-Chloro-3-(2-(4-(2,4-difluorophenyl)piperazin-1-yl)-2-oxoethyl)-1H-indole-2-carboxylic acid] returned an inhibition at 1 µM of less than 20%, an inhibition at 3 µM of less than 20%, an inhibition at 10 µM of less than 20% and an inhibition at 30 µM of 65.2%. Moreover, the inhibition at 100 µM is 93.3%.
Compound `Cc1cc(C)c2[nH]c(C(=O)O)c(CC(=O)N3CCN(c4c(C)cccc4Cl)CC3)c2c1` [YPI-A4949, 3-(2-(4-(2-Chloro-6-methylphenyl)piperazin-1-yl)-2-oxoethyl)-5,7-dimethyl-1H-indole-2-carboxylic acid] registered an inhibition at 1 µM of less than 20%, an inhibition at 3 µM of 39.5%, an inhibition at 10 µM of 78.9% and an inhibition at 30 µM of 79.3%. The inhibition at 100 µM stood at 79.6%.
Take `O=C(O)c1[nH]c2ccc(Cl)cc2c1CC(=O)N1CCN(c2cc(Cl)c(Cl)c(Cl)c2)CC1` [YPI-A4916, 5-Chloro-3-(2-oxo-2-(4-(3,4,5-trichlorophenyl)piperazin-1-yl)ethyl)-1H-indole-2-carboxylic acid]: the inhibition at 1 µM is less than 20%, 3 µM produced 45.7% inhibition, 10 µM produced 82.6% inhibition and the inhibition at 30 µM worked out at 90.9%. In addition, testing at 100 µM gave an inhibition of 91.4%.
On to `O=C(O)c1[nH]c2ccc(Cl)cc2c1CC(=O)N1CCN(c2ccc(-c3ccccc3)cc2)CC1` [YPI-A4966, 3-(2-(4-([1,1′-biphenyl]-4-yl)piperazin-1-yl)-2-oxoethyl)-5-chloro-1H-indole-2-carboxylic acid], for which the inhibition at 1 µM is less than 20%, the inhibition at 3 µM was less than 20%, the inhibition at 10 µM is less than 20% and the inhibition at 30 µM was less than 20%. The inhibition at 100 µM is less than 20%.
`COc1ccccc1N1CCN(C(=O)Cc2c(C(=O)O)[nH]c3ccc(Cl)cc23)CC1` [YPI-A4876, 5-Chloro-3-(2-(4-(2-methoxyphenyl)piperazin-1-yl)-2-oxoethyl)-1H-indole-2-carboxylic acid] returned an inhibition at 1 µM of less than 20%, an inhibition at 3 µM of less than 20%, an inhibition at 10 µM of less than 20% and an inhibition at 30 µM of less than 20%. In addition, the inhibition at 100 µM is 56.8%.
Turning to `Cc1cccc(Cl)c1N1CCN(C(=O)Cc2c(C(=O)O)[nH]c3ccc(Cl)cc23)CC1` [YPI-A4880, 5-Chloro-3-(2-(4-(2-chloro-6-methylphenyl)piperazin-1-yl)-2-oxoethyl)-1H-indole-2-carboxylic acid], at 1 µM the inhibition was 42.8%, the inhibition at 3 µM is 75.2%, the inhibition at 10 µM amounted to 97.6% and the inhibition at 30 µM worked out at 98.1%. Further, 100 µM produced 98.4% inhibition.
The corresponding values for `CCOc1ccc(N2CCN(C(=O)Cc3c(C(=O)O)[nH]c4ccc(Cl)cc34)CC2)cc1` [YPI-A4921, 5-Chloro-3-(2-(4-(4-ethoxyphenyl)piperazin-1-yl)-2-oxoethyl)-1H-indole-2-carboxylic acid] are less than 20%, less than 20%, less than 20%, 72.5% and 73.8%.
`O=C(O)c1[nH]c2ccc(Cl)cc2c1CC(=O)N1CCN(c2cccc(Br)c2)CC1` [YPI-A4845, 3-(2-(4-(3-Bromophenyl)piperazin-1-yl)-2-oxoethyl)-5-chloro-1H-indole-2-carboxylic acid]: the inhibition at 1 µM is less than 20%, the inhibition at 3 µM is less than 20%, the inhibition at 10 µM is 35.1% and testing at 30 µM gave an inhibition of 88.8%.
In turn, `O=C(O)c1[nH]c2ccc(Cl)cc2c1CC(=O)N1CCN(c2ccccc2Br)CC1` [YPI-A4844, 3-(2-(4-(2-Bromophenyl)piperazin-1-yl)-2-oxoethyl)-5-chloro-1H-indole-2-carboxylic acid] displayed an inhibition at 1 µM of less than 20%, an inhibition at 3 µM of less than 20%, an inhibition at 10 µM of 59.7% and an inhibition at 30 µM of 92.5%.
